ChEMBL document CHEMBL2390892, “Synthesis and cytotoxic activity on human cancer cells of carbamate derivatives of 4β-(1,2,3-triazol-1-yl)podophyllotoxin” (Eur J Med Chem, 2013)
The source made the active and inactive calls. The calls are words filed in the database; no cut-off is given here.

Key:
HeLa = test: Cytotoxicity against human HeLa cells assessed as growth inhibition after 48 hrs by MTT assay; type: functional, cell-based
HCT-8 = test: Cytotoxicity against human HCT8 cells assessed as growth inhibition after 48 hrs by MTT assay; type: functional, cell-based; conditions: HCT-8, 48 h
HL-60 = test: Cytotoxicity against human HL60 cells assessed as growth inhibition after 48 hrs by CCK-8 assay; type: functional, cell-based; conditions: HL-60, 48 h
A549 [1] = test: Cytotoxicity against human A549 cells assessed as growth inhibition after 48 hrs by MTT assay; type: functional, cell-based; conditions: A549, 48 h
[2] = Solubility of the compound in water; type: physicochemical; conditions: buffer
A549 [3] = test: Induction of apoptosis in human A549 cells assessed as nuclear DNA fragmentation after 48 hrs by DAPI staining-based confocal microscopic analysis; type: functional, cell-based
A549 [4] = test: Cell cycle arrest in human A549 cells assessed as accumulation at G1 phase at 5 uM after 24 hrs by propidium iodide staining-based FACS flow cytometric analysis (reference value: 58.1%); type: functional
[5] = target: DNA topoisomerase 2-alpha (Homo sapiens) (UniProt P11388); test: Inhibition of DNA topoisomerase-2 (unknown origin) assessed as inhibition of pBR322 DNA relaxation at 100 uM by agarose gel electrophoresis
Chain of DNA topoisomerase 2-alpha (Homo sapiens) (P11388 whole entry): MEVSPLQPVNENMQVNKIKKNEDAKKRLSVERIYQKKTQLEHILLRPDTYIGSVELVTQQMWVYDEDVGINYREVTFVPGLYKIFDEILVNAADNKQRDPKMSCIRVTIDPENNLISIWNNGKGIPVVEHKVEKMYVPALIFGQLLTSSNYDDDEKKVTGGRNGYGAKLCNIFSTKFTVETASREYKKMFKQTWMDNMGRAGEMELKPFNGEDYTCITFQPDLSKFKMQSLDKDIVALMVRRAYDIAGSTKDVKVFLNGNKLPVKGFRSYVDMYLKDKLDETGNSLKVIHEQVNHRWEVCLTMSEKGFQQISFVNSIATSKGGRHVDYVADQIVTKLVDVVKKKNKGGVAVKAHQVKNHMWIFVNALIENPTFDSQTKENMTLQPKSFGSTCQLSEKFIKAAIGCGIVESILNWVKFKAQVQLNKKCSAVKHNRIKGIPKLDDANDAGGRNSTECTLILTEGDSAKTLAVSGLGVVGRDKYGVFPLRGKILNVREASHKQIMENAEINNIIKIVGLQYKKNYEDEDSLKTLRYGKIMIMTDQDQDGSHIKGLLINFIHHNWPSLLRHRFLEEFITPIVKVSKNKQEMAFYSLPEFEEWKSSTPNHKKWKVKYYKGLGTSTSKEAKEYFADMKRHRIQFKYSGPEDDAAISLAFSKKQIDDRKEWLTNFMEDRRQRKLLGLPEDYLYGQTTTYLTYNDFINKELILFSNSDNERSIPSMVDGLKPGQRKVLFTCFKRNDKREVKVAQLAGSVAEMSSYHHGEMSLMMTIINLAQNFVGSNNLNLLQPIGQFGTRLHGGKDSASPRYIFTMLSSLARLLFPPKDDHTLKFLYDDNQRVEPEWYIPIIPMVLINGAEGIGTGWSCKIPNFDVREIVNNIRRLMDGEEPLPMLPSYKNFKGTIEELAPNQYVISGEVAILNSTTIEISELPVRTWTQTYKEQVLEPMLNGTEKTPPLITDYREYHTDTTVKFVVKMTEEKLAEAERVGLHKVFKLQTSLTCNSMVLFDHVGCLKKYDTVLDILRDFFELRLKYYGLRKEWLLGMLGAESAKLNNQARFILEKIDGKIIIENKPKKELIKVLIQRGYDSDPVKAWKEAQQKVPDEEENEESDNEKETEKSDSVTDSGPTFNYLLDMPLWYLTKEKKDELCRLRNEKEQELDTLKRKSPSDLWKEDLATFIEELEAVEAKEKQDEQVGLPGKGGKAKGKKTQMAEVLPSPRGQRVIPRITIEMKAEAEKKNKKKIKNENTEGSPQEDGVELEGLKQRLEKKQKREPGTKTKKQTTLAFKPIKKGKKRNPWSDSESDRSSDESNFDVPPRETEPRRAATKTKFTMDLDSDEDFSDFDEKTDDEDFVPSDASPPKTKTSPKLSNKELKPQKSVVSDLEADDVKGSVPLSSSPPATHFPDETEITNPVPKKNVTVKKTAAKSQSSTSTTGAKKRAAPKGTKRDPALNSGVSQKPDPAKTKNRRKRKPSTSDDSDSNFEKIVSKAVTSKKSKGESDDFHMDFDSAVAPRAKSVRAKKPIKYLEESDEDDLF

A549 [6] = test: Cell cycle arrest in human A549 cells assessed as accumulation at G2/M phase at 5 uM after 48 hrs by propidium iodide staining-based FACS flow cytometric analysis (reference value: 16.4%); type: functional
A549 [7] = test: Cell cycle arrest in human A549 cells assessed as accumulation at S phase at 5 uM after 24 hrs by propidium iodide staining-based FACS flow cytometric analysis (reference value: 25.5%); type: functional
A549 [8] = test: Cell cycle arrest in human A549 cells assessed as accumulation at G2/M phase at 5 uM after 24 hrs by propidium iodide staining-based FACS flow cytometric analysis (reference value: 16.4%); type: functional
A549 [9] = test: Cell cycle arrest in human A549 cells assessed as accumulation at sub-G1 phase at 5 uM after 24 hrs by propidium iodide staining-based FACS flow cytometric analysis (reference value: 1.5%); type: functional
A549 [10] = test: Induction of apoptosis in human A549 cells assessed as appearance of round, short and dense microtubule networks after 48 hrs by confocal microscopic analysis; type: functional, cell-based
A549 [11] = test: Induction of apoptosis in human A549 cells assessed as cell shrinkage after 48 hrs by confocal microscopic analysis; type: functional, cell-based
A549 [12] = test: Cell cycle arrest in human A549 cells assessed as accumulation at G1 phase at 5 uM after 48 hrs by propidium iodide staining-based FACS flow cytometric analysis (reference value: 58.1%); type: functional
A549 [13] = test: Cell cycle arrest in human A549 cells assessed as accumulation at sub-G1 phase at 5 uM after 48 hrs by propidium iodide staining-based FACS flow cytometric analysis (reference value: 1.5%); type: functional
A549 [14] = test: Induction of apoptosis in human A549 cells assessed as nuclear condensation after 48 hrs by DAPI staining-based confocal microscopic analysis; type: functional, cell-based
A549 [15] = test: Cell cycle arrest in human A549 cells assessed as accumulation at S phase at 5 uM after 48 hrs by propidium iodide staining-based FACS flow cytometric analysis (reference value: 25.5%); type: functional

COc1cc([C@@H]2c3cc4c(cc3[C@@H](n3cc(COC(=O)N5CCN(C6CCCC6)CC5)nn3)[C@H]3COC(=O)[C@H]23)OCO4)cc(OC)c1OC
IC50 (HeLa): < 0.01 µM
IC50 (HCT-8): 0.35 µM
IC50 (HL-60): < 10 nM
IC50 (A549 [1]): 8.7 µM

COc1cc([C@@H]2c3cc4c(cc3[C@@H](n3cc(COC(=O)N5CCOCC5)nn3)[C@H]3COC(=O)[C@H]23)OCO4)cc(OC)c1O
IC50 (HeLa): 0.03 µM
IC50 (HCT-8): 0.37 µM
IC50 (HL-60): 45 nM
IC50 (A549 [1]): 1.46 µM

COc1cc([C@@H]2c3cc4c(cc3[C@@H](n3cc(COC(=O)N5CCN(c6ccc([N+](=O)[O-])cc6)CC5)nn3)[C@H]3COC(=O)[C@H]23)OCO4)cc(OC)c1OC
IC50 (HeLa): 6.48 µM
IC50 (HCT-8): 31.3 µM
IC50 (HL-60): 625 nM
IC50 (A549 [1]): 56.6 µM

COc1cc([C@@H]2c3cc4c(cc3[C@H](O)[C@H]3COC(=O)[C@H]23)OCO4)cc(OC)c1OC [PODOFILOX]
solubility [2]: soluble

COc1cc([C@@H]2c3cc4c(cc3[C@@H](n3cc(COC(=O)N5CCN(c6ccc([N+](=O)[O-])cc6)CC5)nn3)[C@H]3COC(=O)[C@H]23)OCO4)cc(OC)c1O
IC50 (HeLa): 3.5 µM
IC50 (HCT-8): 6.15 µM
IC50 (HL-60): 320 nM
solubility [2]: soluble
IC50 (A549 [1]): 5.58 µM

COc1cc([C@@H]2c3cc4c(cc3[C@@H](n3cc(COC(=O)N[C@@H](CCSC)C(=O)N5CCN(c6ccc([N+](=O)[O-])cc6)CC5)nn3)[C@H]3COC(=O)[C@H]23)OCO4)cc(OC)c1O
IC50 (HeLa): 10.3 µM
IC50 (HCT-8): 40.8 µM
IC50 (HL-60): 15700 nM
solubility [2]: soluble
IC50 (A549 [1]): 45.6 µM

COc1cc([C@@H]2c3cc4c(cc3[C@@H](n3cc(COC(=O)N5CCOCC5)nn3)[C@H]3COC(=O)[C@H]23)OCO4)cc(OC)c1OC
IC50 (HeLa): 35.7 µM
IC50 (HCT-8): 2.05 µM
IC50 (HL-60): 629 nM
IC50 (A549 [1]): 23.3 µM

COc1cc([C@@H]2c3cc4c(cc3[C@@H](n3cc(COC(=O)NC5CCCC5)nn3)[C@H]3COC(=O)[C@H]23)OCO4)cc(OC)c1O
Activity (A549 [3]): Dose-dependent effect
Activity (A549 [4]): 43.1%
inhibition [5]: Active
Activity (A549 [6]): 22.2%
Activity (A549 [7]): 36.3%
Activity (A549 [8]): 20.6%
IC50 (HeLa): 0.51 µM
IC50 (HCT-8): 0.05 µM
Activity (A549 [9]): 24.3%
Activity (A549 [10]): Dose-dependent effect
Activity (A549 [11]): Dose-dependent effect
Activity (A549 [12]): 22.7%
IC50 (HL-60): < 10 nM
Activity (A549 [13]): 26.8%
IC50 (A549 [1]): 0.14 µM
Activity (A549 [14]): Dose-dependent effect
Activity (A549 [15]): 55.1%

COc1cc([C@@H]2c3cc4c(cc3[C@@H](O[C@@H]3O[C@@H]5CO[C@@H](C)O[C@H]5[C@H](O)[C@H]3O)[C@H]3COC(=O)[C@H]23)OCO4)cc(OC)c1O [ETOPOSIDE]
inhibition [5]: Active
IC50 (HeLa): 2.91 µM
IC50 (HCT-8): 7.06 µM
IC50 (HL-60): 1150 nM
IC50 (A549 [1]): 3.2 µM

CCCNC(=O)OCc1cn([C@@H]2c3cc4c(cc3[C@@H](c3cc(OC)c(O)c(OC)c3)[C@H]3C(=O)OC[C@@H]32)OCO4)nn1
IC50 (HeLa): 6.91 µM
IC50 (HCT-8): 16.2 µM
IC50 (HL-60): 183 nM
IC50 (A549 [1]): 23 µM

COc1cc([C@@H]2c3cc4c(cc3[C@@H](n3cc(COC(=O)N5CCN(c6ccc(F)cc6)CC5)nn3)[C@H]3COC(=O)[C@H]23)OCO4)cc(OC)c1OC
IC50 (HeLa): 3.84 µM
IC50 (HCT-8): 1.47 µM
IC50 (HL-60): < 10 nM
IC50 (A549 [1]): 22.1 µM

CCCNC(=O)OCc1cn([C@@H]2c3cc4c(cc3[C@@H](c3cc(OC)c(OC)c(OC)c3)[C@H]3C(=O)OC[C@@H]32)OCO4)nn1
IC50 (HeLa): 7.42 µM
IC50 (HCT-8): 6.29 µM
IC50 (HL-60): 2770 nM
IC50 (A549 [1]): 46.8 µM

COc1cc([C@@H]2c3cc4c(cc3[C@@H](n3cc(COC(=O)NC5CCCC5)nn3)[C@H]3COC(=O)[C@H]23)OCO4)cc(OC)c1OC
IC50 (HeLa): 1.16 µM
IC50 (HCT-8): 14.9 µM
IC50 (HL-60): 375 nM
IC50 (A549 [1]): 14.8 µM

COc1cc([C@@H]2c3cc4c(cc3[C@@H](n3cc(CO)nn3)[C@H]3COC(=O)[C@H]23)OCO4)cc(OC)c1OC
IC50 (HeLa): 0.92 µM
IC50 (HCT-8): 2.76 µM
IC50 (HL-60): 298 nM
IC50 (A549 [1]): 22.1 µM
